Assay results published in article PMC8291587, “Guanidine Derivatives: How Simple Structural Modification of Histamine H3R Antagonists Has Led to the Discovery of Potent Muscarinic M2R/M4R Antagonists” (ACS Chemical Neuroscience, 2021).
Read-outs that look alike come from different tables or passages of the source.

Columns and labels:
H1R = target: T1, H1R (Cavia porcellus, UniProt P31389); test: Ex vivo screening of histamine H1R antagonists on guinea pig ileum, variant without atropine; settings: isolated guinea pig ileum, histamine as agonist
T1 construct: from tissue; host or cells: isolated distal ileum of male guinea pigs
Method: The second histamine receptor located in the guinea pig ileum is H1R. […] The H1R antagonistic effect was measured on isolated guinea pig ileum stimulated to contract by histamine.[37] To assess and exclude the influence of the ADS compounds on muscarinic receptors, two test variations were used: one with the addition of 0.05 μM atropine and one without.
Male guinea pigs, weighing 300–400 g, were euthanized by a blow to the neck. A 20–30 cm length of the distal ileum, apart from the terminal 5 cm, was rapidly removed and placed in phosphate buffer at room temperature (pH 7.4) containing (mM) NaCl (136.9), KCl (2.6), KH2PO4 (1.47), Na2HPO4 (9.58), and indomethacin (1 × 10^–6 mol/L). The intraluminal content was rinsed, and the isolated intestine was cut into 1.5–2 cm segments. The preparations were mounted isotonically in a 20 mL organ bath filled with Krebs buffer: composition (mM) NaCl (118), KCl (5.6), MgSO4 (1.18), CaCl2 (2.5), NaH2PO4·H2O (1.28), NaHCO3 (25), glucose (5.55), and indomethacin (3 × 10^–7 mol/L). […] The solution was continuously bubbled with a 95% O2:5% CO2 mixture and maintained at 37 °C under a constant load of 0.5 g (Hugo Sachs Hebel–Messvorsatz (Tl-2)/HF-modem; Hugo Sachs Elektronik, Hugstetten, Germany) connected to a pen recorder (Kipp & Zonen BD41, Delft, Holland). During an equilibration period of 40 min, Krebs buffer was changed every 10 min. The first cumulative concentration–response curve was determined for histamine (10 nM to 10 mM) at increasing concentrations spaced by 3- or 3.3-fold. The second to the fourth (or fifth) curves were measured in the presence of an increasing concentrations of antagonist (incubation time 10 min). The pA2 values were calculated according to Arunlakshana and Schild.[37] Statistical analysis was carried out with the Students’ t test. In all tests, a p < 0.05 was considered statistically significant.

hM3R = target: T2, hM3R (Homo sapiens, UniProt P20309); test: hM3R radioligand binding ([3H]NMS, CHO cell membranes)
T2 construct: host or cells: CHO cells, stably transfected; crude membranes
Method: To clearly explain the obtained outcome, we engaged the radioligand binding experiment. The hM1–hM5 radioligand binding experiments were performed in the membrane fractions of Chinese hamster ovary cells (CHO) stably expressing human variants of muscarinic receptors. N-[^3H]Methylscopolamine was used as the radiolabeled ligand.[39] Three compounds were selected from ex vivo screening on guinea pig ileum. […] This compound is also not completely selective for the remaining muscarinic receptor subtypes with −log Ki values over 6. […] It is also a potent muscarinic M1R antagonist, and the M1R/M2R selectivity ratio is <10. It is worth noting that such nonspecific anticholinergics are often associated with neuropsychiatric and cognitive disturbances and that nonselective muscarinic M1R/M2R antagonists, such as scopolamine, can produce cognitive deficits. Further structural modifications of ADS10227 should be used to increase selectivity toward the M2R, as these may present fewer potential side effects associated with the activation of the phospholipase C signaling pathway.
The culture was derived from CHO cells stably transfected with the genes of human variants of muscarinic receptors. These were purchased from Missouri S&T cDNA Resource Center (Rolla, MO, USA). Cell cultures and crude membranes were prepared as described previously.[45] […]
All radioligand binding experiments were optimized and carried out according to general guidelines.[39] […] N-Methylscopolamine binding was measured directly in saturation experiments using six concentrations (30–1000 pM) of [^3H]NMS during incubation for 1 h (M2R), 3 h (M1R, M3R, and M4R), or 5 h (M5R). For calculations of the equilibrium dissociation constant (KD), concentrations of free [^3H]NMS were calculated by subtraction of bound radioactivity from total radioactivity in the sample and fitting eq 1 (Experimental Data analysis section). The binding of the tested ligands was determined in competition experiments with 100 pM [^3H]NMS. […] Nonspecific binding was determined in the presence of 1 μM unlabeled atropine. […]

[1] = read-out: H1R pA2 gpi ± sem (converted)
[2] = read-out: hM3R -log(Ki) ± sem (converted)

T1 sequence (P31389 whole entry): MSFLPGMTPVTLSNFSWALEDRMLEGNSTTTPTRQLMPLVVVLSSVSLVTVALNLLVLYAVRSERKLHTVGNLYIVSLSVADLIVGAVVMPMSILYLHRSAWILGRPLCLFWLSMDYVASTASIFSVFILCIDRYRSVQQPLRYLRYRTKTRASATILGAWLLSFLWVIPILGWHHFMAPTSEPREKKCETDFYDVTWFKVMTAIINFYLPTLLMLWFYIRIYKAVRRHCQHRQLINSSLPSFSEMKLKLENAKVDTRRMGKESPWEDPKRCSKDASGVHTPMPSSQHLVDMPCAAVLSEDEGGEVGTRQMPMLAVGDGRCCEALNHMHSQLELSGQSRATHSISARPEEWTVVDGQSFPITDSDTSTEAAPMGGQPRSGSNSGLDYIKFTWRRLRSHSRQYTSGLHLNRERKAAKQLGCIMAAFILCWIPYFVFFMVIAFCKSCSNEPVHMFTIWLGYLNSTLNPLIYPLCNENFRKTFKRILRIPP
T2 sequence (P20309 whole entry): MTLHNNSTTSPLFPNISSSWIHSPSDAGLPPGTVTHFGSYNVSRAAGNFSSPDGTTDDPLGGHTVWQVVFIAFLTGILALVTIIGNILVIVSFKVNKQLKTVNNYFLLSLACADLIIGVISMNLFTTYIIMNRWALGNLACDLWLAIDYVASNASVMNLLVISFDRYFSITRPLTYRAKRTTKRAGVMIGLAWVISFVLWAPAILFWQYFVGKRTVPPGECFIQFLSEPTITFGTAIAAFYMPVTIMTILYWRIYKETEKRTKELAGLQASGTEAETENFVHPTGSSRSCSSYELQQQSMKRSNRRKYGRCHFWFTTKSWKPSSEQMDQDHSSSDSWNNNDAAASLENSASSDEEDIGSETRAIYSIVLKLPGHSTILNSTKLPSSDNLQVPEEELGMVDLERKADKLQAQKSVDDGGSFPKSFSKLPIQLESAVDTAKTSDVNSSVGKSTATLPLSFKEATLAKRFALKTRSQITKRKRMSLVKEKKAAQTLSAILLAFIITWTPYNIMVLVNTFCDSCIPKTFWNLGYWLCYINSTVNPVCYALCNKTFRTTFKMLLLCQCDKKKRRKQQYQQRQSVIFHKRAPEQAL

| SMILES | Kb (H1R; [1]) | Ki (hM3R; [2]) | Kb (H1R; H1R pA2 gpi ± sem) | Ki (hM3R; hM3R -log(Ki) ± sem) |
| --- | --- | --- | --- | --- |
| N=C(N)N(CCCCN1CCN(C[C@H]2CC[C@@H](COc3ccccc3)CC2)CC1)Cc1ccccc1 [ADS10227, 1-{4-{4-{[4-(phenoxymethyl)cyclohexyl]methyl}piperazin-1-yl}but-1-yl}-1-(benzyl)guanidine] | 70.8 nM | 51.3 nM | – | – |
| N=C(N)N(CCCCN1CCN(CCCCCCCOc2ccccc2)CC1)Cc1ccccc1 [ADS1017] | – | – | 331 nM | 347 nM |
| [H]/N=C(/N)N(CCCCN1CCN(CC2CCC(COc3ccccc3)CC2)CC1)Cc1ccc(C(F)(F)F)cc1 (stereo not drawn) [ADS10239] | 110 nM | 123 nM | – | – |
